*1 amine or outer side, *2 acyl side, *3 side chain or, on linkers, in order; H or OH if unused. Where a SMILES comes first, the peptide text is derived from it. Bridges are numbered along the chain shown (N, C = ends). [ ]: non-standard residue; d: D form. Phe(3,4,5-F3) = N[C@@H](Cc1cc(F)c(F)c(F)c1)C(=O)O; NMePhe(4-F) = CN[C@@H](Cc1ccc(F)cc1)C(=O)O; d(cisHyp) = O=C(O)[C@H]1C[C@@H](O)CN1; NMeY = CN[C@@H](Cc1ccc(O)cc1)C(=O)O; NMeF = CN[C@@H](Cc1ccccc1)C(=O)O; X1 = O=C([C@H]1COCCN1[*:1])[*:2]; NMeNle = CCCC[C@H](NC)C(=O)O; dPip = O=C(O)[C@H]1CCCCN1; Orn = NCCC[C@H](N)C(=O)O; Dab = NCC[C@H](N)C(=O)O; Dap = NC[C@H](N)C(=O)O

The target of the experiment is T1, Human PD-L1/PD-1 (Homo sapiens, UniProt Q9NZQ7).
T1 construct: TVMV protease cleavage site (C); made in house; host or cells: HEK293T cells
As to the kind of experiment: HTRF Human PD-L1/PD-1 binding assay (PD-1-Ig/PD-L1-His). Conditions: PD-L1-His 10 nM, PD-1-Ig 20 nM; class symbol; read-out: HTRF Human PD-L1/PD-1 Binding Assay IC50 Range. In short, it runs like this: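 Competition of macrocyclic peptides for PD-1/PD-L1 binding measured by HTRF in dPBS containing 0.1% BSA and 0.05% Tween-20. Compound and PD-L1-His (10 nM final) incubated 15 min before PD-1-Ig (20 nM final) and a further 15 min.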
In general terms: TR-FRET usually uses a lanthanide donor and a delayed reading to cut background.

T1 sequence (Q9NZQ7 with tags, fused parts or gaps): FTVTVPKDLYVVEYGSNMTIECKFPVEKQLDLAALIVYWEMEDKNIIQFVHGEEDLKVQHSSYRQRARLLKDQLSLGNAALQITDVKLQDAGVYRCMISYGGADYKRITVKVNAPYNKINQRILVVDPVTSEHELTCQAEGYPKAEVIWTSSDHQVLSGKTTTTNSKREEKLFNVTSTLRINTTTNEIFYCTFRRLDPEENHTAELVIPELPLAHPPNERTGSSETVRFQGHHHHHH

Consider `CCCC[C@H]1C(=O)N2C[C@H](O)C[C@@H]2C(=O)N[C@@H](CC(=O)O)C(=O)N[C@@H](C(C)C)C(=O)N(C)[C@@H](Cc2ccccc2)C(=O)N[C@@H](CCC(=O)O)C(=O)N2CCOC[C@@H]2C(=O)N[C@@H](Cc2c[nH]c3ccccc23)C(=O)N[C@@H](Cc2ccc(O)cc2)C(=O)N[C@@H](CCC(N)=O)C(=O)N[C@H](C(=O)NCC(N)=O)CSCC(=O)N[C@@H](Cc2cc(F)c(F)c(F)c2)C(=O)N(C)[C@@H](Cc2ccc(F)cc2)C(=O)N1C` [Example 10595] ({CH2CO}-[Phe(3,4,5-F3)][NMePhe(4-F)][NMeNle][d(cisHyp)]DV[NMeF]E[X1]WYQCG-NH2; thioether N-13), for which the IC50 fell in the range of 1 to 9.9 nM.

For the compound `CCCC[C@H]1C(=O)N2CCC[C@@H]2C(=O)N[C@@H](CC(=O)O)C(=O)N[C@@H](C(C)C)C(=O)N(C)[C@@H](Cc2ccccc2)C(=O)N[C@@H](CCC(=O)O)C(=O)N2CCOC[C@@H]2C(=O)N[C@@H](Cc2c[nH]c3ccccc23)C(=O)N[C@@H](Cc2ccc(O)cc2)C(=O)N[C@@H](CCCN)C(=O)N[C@H](C(=O)NCC(N)=O)CSCC(=O)N[C@@H](Cc2cc(F)c(F)c(F)c2)C(=O)N(C)[C@@H](Cc2ccc(F)cc2)C(=O)N1C` [Example 10596] ({CH2CO}-[Phe(3,4,5-F3)][NMePhe(4-F)][NMeNle][dP]DV[NMeF]E[X1]WY[Orn]CG-NH2; thioether N-13), the IC50 lay in the range of 1 to 9.9 nM.

In the case of `CCCC[C@H]1C(=O)N2CCC[C@@H]2C(=O)N[C@@H](CC(=O)O)C(=O)N[C@@H](C(C)C)C(=O)N(C)[C@@H](Cc2ccccc2)C(=O)N[C@@H](CCC(=O)O)C(=O)N2CCOC[C@@H]2C(=O)N[C@@H](Cc2c[nH]c3ccccc23)C(=O)N[C@@H](Cc2ccc(O)cc2)C(=O)N[C@@H](CC(N)=O)C(=O)N[C@H](C(=O)NCC(N)=O)CSCC(=O)N[C@@H](Cc2cc(F)c(F)c(F)c2)C(=O)N(C)[C@@H](Cc2ccc(F)cc2)C(=O)N1C` [Example 10597] ({CH2CO}-[Phe(3,4,5-F3)][NMePhe(4-F)][NMeNle][dP]DV[NMeF]E[X1]WYNCG-NH2; thioether N-13), the IC50 lay in the range of 1 to 9.9 nM.

On to `CCCC[C@H]1C(=O)N2CCC[C@@H]2C(=O)N[C@@H](CC(=O)O)C(=O)N[C@@H](C(C)C)C(=O)N(C)[C@@H](Cc2ccccc2)C(=O)N[C@@H](CCC(=O)O)C(=O)N2CCOC[C@@H]2C(=O)N[C@@H](Cc2c[nH]c3ccccc23)C(=O)N[C@@H](Cc2ccc(O)cc2)C(=O)N[C@@H](CCCCN)C(=O)N[C@H](C(=O)NCC(N)=O)CSCC(=O)N[C@@H](Cc2cc(F)c(F)c(F)c2)C(=O)N(C)[C@@H](Cc2ccc(F)cc2)C(=O)N1C` [Example 10598] ({CH2CO}-[Phe(3,4,5-F3)][NMePhe(4-F)][NMeNle][dP]DV[NMeF]E[X1]WYKCG-NH2; thioether N-13), for which the IC50 lay in the range of 1 to 9.9 nM.

In the case of `CCCC[C@H]1C(=O)N2CCC[C@@H]2C(=O)N[C@@H](CC(=O)O)C(=O)N[C@@H](C(C)C)C(=O)N(C)[C@@H](Cc2ccccc2)C(=O)N[C@@H](CCC(=O)O)C(=O)N2CCOC[C@@H]2C(=O)N[C@@H](Cc2c[nH]c3ccccc23)C(=O)N[C@@H](Cc2ccc(O)cc2)C(=O)N[C@@H](CC(C)C)C(=O)N[C@H](C(=O)NCC(N)=O)CSCC(=O)N[C@@H](Cc2cc(F)c(F)c(F)c2)C(=O)N(C)[C@@H](Cc2ccc(O)cc2)C(=O)N1C` [Example 10599] ({CH2CO}-[Phe(3,4,5-F3)][NMeY][NMeNle][dP]DV[NMeF]E[X1]WYLCG-NH2; thioether N-13), the IC50 was in the range of 1 to 9.9 nM.

Take `CCCC[C@H]1C(=O)N2CCC[C@@H]2C(=O)N[C@@H](CC(=O)O)C(=O)N[C@@H](C(C)C)C(=O)N(C)[C@@H](Cc2ccccc2)C(=O)N[C@@H](CCC(=O)O)C(=O)N2CCCC[C@@H]2C(=O)N[C@@H](Cc2c[nH]c3ccccc23)C(=O)N[C@@H](Cc2ccc(O)cc2)C(=O)N[C@@H](CCN)C(=O)N[C@H](C(=O)NCC(N)=O)CSCC(=O)N[C@@H](Cc2cc(F)c(F)c(F)c2)C(=O)N(C)[C@@H](Cc2ccc(O)cc2)C(=O)N1C` [Example 10600] ({CH2CO}-[Phe(3,4,5-F3)][NMeY][NMeNle][dP]DV[NMeF]E[dPip]WY[Dab]CG-NH2; thioether N-13): the IC50 was 1 to 9.9 nM.

In the case of `CCCC[C@H]1C(=O)N2CCC[C@@H]2C(=O)N[C@@H](CC(=O)O)C(=O)N[C@@H](C(C)C)C(=O)N(C)[C@@H](Cc2ccccc2)C(=O)N[C@@H](CCC(=O)O)C(=O)N2CCCC[C@@H]2C(=O)N[C@@H](Cc2c[nH]c3ccccc23)C(=O)N[C@@H](Cc2ccc(O)cc2)C(=O)N[C@@H](CCCN)C(=O)N[C@H](C(=O)NCC(N)=O)CSCC(=O)N[C@@H](Cc2cc(F)c(F)c(F)c2)C(=O)N(C)[C@@H](Cc2ccc(O)cc2)C(=O)N1C` [Example 10601] ({CH2CO}-[Phe(3,4,5-F3)][NMeY][NMeNle][dP]DV[NMeF]E[dPip]WY[Orn]CG-NH2; thioether N-13), the IC50 fell in the range of 1 to 9.9 nM.

In the case of `CCCC[C@H]1C(=O)N2CCC[C@@H]2C(=O)N[C@@H](CC(=O)O)C(=O)N[C@@H](C(C)C)C(=O)N(C)[C@@H](Cc2ccccc2)C(=O)N[C@@H](CCC(=O)O)C(=O)N2CCCC[C@@H]2C(=O)N[C@@H](Cc2c[nH]c3ccccc23)C(=O)N[C@@H](Cc2ccc(O)cc2)C(=O)N[C@@H](CC(C)C)C(=O)N[C@H](C(=O)NCC(N)=O)CSCC(=O)N[C@@H](Cc2cc(F)c(F)c(F)c2)C(=O)N(C)[C@@H](Cc2ccc(OC)cc2)C(=O)N1C` [Example 10602] ({CH2CO}-[Phe(3,4,5-F3)][NMeY](Me)[NMeNle][dP]DV[NMeF]E[dPip]WYLCG-NH2; thioether N-13), the IC50 was in the range of 1 to 9.9 nM.

`CCCC[C@H]1C(=O)N2CCC[C@@H]2C(=O)N[C@@H](CC(=O)O)C(=O)N[C@@H](C(C)C)C(=O)N(C)[C@@H](Cc2ccccc2)C(=O)N[C@@H](CCC(=O)O)C(=O)N2CCCC[C@@H]2C(=O)N[C@@H](Cc2c[nH]c3ccccc23)C(=O)N[C@@H](Cc2ccc(O)cc2)C(=O)N[C@@H](CCN)C(=O)N[C@H](C(=O)NCC(N)=O)CSCC(=O)N[C@@H](Cc2cc(F)c(F)c(F)c2)C(=O)N(C)[C@@H](Cc2ccc(OC)cc2)C(=O)N1C` [Example 10603] ({CH2CO}-[Phe(3,4,5-F3)][NMeY](Me)[NMeNle][dP]DV[NMeF]E[dPip]WY[Dab]CG-NH2; thioether N-13): the IC50 lay within 1 to 9.9 nM.

In the case of `CCCC[C@H]1C(=O)N2CCC[C@@H]2C(=O)N[C@@H](CC(=O)O)C(=O)N[C@@H](C(C)C)C(=O)N(C)[C@@H](Cc2ccccc2)C(=O)N[C@@H](CCC(=O)O)C(=O)N2CCOC[C@@H]2C(=O)N[C@@H](Cc2c[nH]c3ccccc23)C(=O)N[C@@H](Cc2ccc(O)cc2)C(=O)N[C@@H](CCN)C(=O)N[C@H](C(=O)NCC(N)=O)CSCC(=O)N[C@@H](Cc2cc(F)c(F)c(F)c2)C(=O)N(C)[C@@H](Cc2ccc(F)cc2)C(=O)N1C` [Example 10605] ({CH2CO}-[Phe(3,4,5-F3)][NMePhe(4-F)][NMeNle][dP]DV[NMeF]E[X1]WY[Dab]CG-NH2; thioether N-13), the IC50 lay within 1 to 9.9 nM.

As to `CCCC[C@H]1C(=O)N2CCC[C@@H]2C(=O)N[C@@H](CC(=O)O)C(=O)N[C@@H](C(C)C)C(=O)N(C)[C@@H](Cc2ccccc2)C(=O)N[C@@H](CCC(=O)O)C(=O)N2CCOC[C@@H]2C(=O)N[C@@H](Cc2c[nH]c3ccccc23)C(=O)N[C@@H](Cc2ccc(O)cc2)C(=O)N[C@@H](CN)C(=O)N[C@H](C(=O)NCC(N)=O)CSCC(=O)N[C@@H](Cc2cc(F)c(F)c(F)c2)C(=O)N(C)[C@@H](Cc2ccc(F)cc2)C(=O)N1C` [Example 10606] ({CH2CO}-[Phe(3,4,5-F3)][NMePhe(4-F)][NMeNle][dP]DV[NMeF]E[X1]WY[Dap]CG-NH2; thioether N-13), the IC50 fell in the range of 1 to 9.9 nM.

With `CCCC[C@H]1C(=O)N2CCC[C@@H]2C(=O)N[C@@H](CC(=O)O)C(=O)N[C@@H](C(C)C)C(=O)N(C)[C@@H](Cc2ccccc2)C(=O)N[C@@H](CCC(=O)O)C(=O)N2CCOC[C@@H]2C(=O)N[C@@H](Cc2c[nH]c3ccccc23)C(=O)N[C@@H](Cc2ccc(O)cc2)C(=O)N[C@@H](CCC(N)=O)C(=O)N[C@H](C(=O)NCC(N)=O)CSCC(=O)N[C@@H](Cc2cc(F)c(F)c(F)c2)C(=O)N(C)[C@@H](Cc2ccc(F)cc2)C(=O)N1C` [Example 10607] ({CH2CO}-[Phe(3,4,5-F3)][NMePhe(4-F)][NMeNle][dP]DV[NMeF]E[X1]WYQCG-NH2; thioether N-13), the IC50 fell in the range of 1 to 9.9 nM.

With `CCCC[C@H]1C(=O)N2CCC[C@@H]2C(=O)N[C@@H](CC(=O)O)C(=O)N[C@@H](C(C)C)C(=O)N(C)[C@@H](Cc2ccccc2)C(=O)N[C@@H](CCC(=O)O)C(=O)N2CCCC[C@@H]2C(=O)N[C@H](CCC(=O)O)C(=O)N[C@@H](Cc2ccc(O)cc2)C(=O)N[C@@H](CCCN)C(=O)N[C@H](C(=O)NCC(N)=O)CSCC(=O)N[C@@H](Cc2cc(F)c(F)c(F)c2)C(=O)N(C)[C@@H](Cc2ccc(F)cc2)C(=O)N1C` [Example 10608] ({CH2CO}-[Phe(3,4,5-F3)][NMePhe(4-F)][NMeNle][dP]DV[NMeF]E[dPip][dE]Y[Orn]CG-NH2; thioether N-13), the IC50 fell in the range of 1000 to 10000 nM.

Consider `CCCC[C@H]1C(=O)N2CCC[C@@H]2C(=O)N[C@@H](CC(=O)O)C(=O)N[C@@H](C(C)C)C(=O)N(C)[C@@H](Cc2ccccc2)C(=O)N[C@@H](CCN)C(=O)N2CCCC[C@@H]2C(=O)N[C@H](CCC(=O)O)C(=O)N[C@@H](Cc2ccc(O)cc2)C(=O)N[C@@H](CCCN)C(=O)N[C@H](C(=O)NCC(N)=O)CSCC(=O)N[C@@H](Cc2cc(F)c(F)c(F)c2)C(=O)N(C)[C@@H](Cc2ccc(F)cc2)C(=O)N1C` [Example 10609] ({CH2CO}-[Phe(3,4,5-F3)][NMePhe(4-F)][NMeNle][dP]DV[NMeF][Dab][dPip][dE]Y[Orn]CG-NH2; thioether N-13), for which the IC50 was in the range of 100 to 990 nM.

As to `CCCC[C@H]1C(=O)N2CCC[C@@H]2C(=O)N[C@@H](CC(=O)O)C(=O)N[C@@H](C(C)C)C(=O)N(C)[C@@H](Cc2ccccc2)C(=O)N[C@@H](Cc2ccc(O)cc2)C(=O)N2CCCC[C@@H]2C(=O)N[C@H](CCC(=O)O)C(=O)N[C@@H](Cc2ccc(O)cc2)C(=O)N[C@@H](CCCN)C(=O)N[C@H](C(=O)NCC(N)=O)CSCC(=O)N[C@@H](Cc2cc(F)c(F)c(F)c2)C(=O)N(C)[C@@H](Cc2ccc(F)cc2)C(=O)N1C` [Example 10610] ({CH2CO}-[Phe(3,4,5-F3)][NMePhe(4-F)][NMeNle][dP]DV[NMeF]Y[dPip][dE]Y[Orn]CG-NH2; thioether N-13), the IC50 was 100 to 990 nM.

Values taken from US10538555B2, “Macrocyclic inhibitors of the PD-1/PD-L1 and CD80(B7-1)/PD-L1 protein/protein interactions” (BRISTOL-MYERS SQUIBB COMPANY, priority 2014, dated 2020).
